Consider 31 compounds from patent publication US9096500B2, “Acyl sulfonamide compounds” (Pfizer Limited, priority 2010, dated 2015).

SMILES strings stand for the structures. Bounds are passed on as bounds.

In this assay the target is T1, Nav1.7 (or SCN9A) channel (Homo sapiens, UniProt Q15858).
T1 construct: expressed in transfected cells
T1 sequence (Q15858 whole entry): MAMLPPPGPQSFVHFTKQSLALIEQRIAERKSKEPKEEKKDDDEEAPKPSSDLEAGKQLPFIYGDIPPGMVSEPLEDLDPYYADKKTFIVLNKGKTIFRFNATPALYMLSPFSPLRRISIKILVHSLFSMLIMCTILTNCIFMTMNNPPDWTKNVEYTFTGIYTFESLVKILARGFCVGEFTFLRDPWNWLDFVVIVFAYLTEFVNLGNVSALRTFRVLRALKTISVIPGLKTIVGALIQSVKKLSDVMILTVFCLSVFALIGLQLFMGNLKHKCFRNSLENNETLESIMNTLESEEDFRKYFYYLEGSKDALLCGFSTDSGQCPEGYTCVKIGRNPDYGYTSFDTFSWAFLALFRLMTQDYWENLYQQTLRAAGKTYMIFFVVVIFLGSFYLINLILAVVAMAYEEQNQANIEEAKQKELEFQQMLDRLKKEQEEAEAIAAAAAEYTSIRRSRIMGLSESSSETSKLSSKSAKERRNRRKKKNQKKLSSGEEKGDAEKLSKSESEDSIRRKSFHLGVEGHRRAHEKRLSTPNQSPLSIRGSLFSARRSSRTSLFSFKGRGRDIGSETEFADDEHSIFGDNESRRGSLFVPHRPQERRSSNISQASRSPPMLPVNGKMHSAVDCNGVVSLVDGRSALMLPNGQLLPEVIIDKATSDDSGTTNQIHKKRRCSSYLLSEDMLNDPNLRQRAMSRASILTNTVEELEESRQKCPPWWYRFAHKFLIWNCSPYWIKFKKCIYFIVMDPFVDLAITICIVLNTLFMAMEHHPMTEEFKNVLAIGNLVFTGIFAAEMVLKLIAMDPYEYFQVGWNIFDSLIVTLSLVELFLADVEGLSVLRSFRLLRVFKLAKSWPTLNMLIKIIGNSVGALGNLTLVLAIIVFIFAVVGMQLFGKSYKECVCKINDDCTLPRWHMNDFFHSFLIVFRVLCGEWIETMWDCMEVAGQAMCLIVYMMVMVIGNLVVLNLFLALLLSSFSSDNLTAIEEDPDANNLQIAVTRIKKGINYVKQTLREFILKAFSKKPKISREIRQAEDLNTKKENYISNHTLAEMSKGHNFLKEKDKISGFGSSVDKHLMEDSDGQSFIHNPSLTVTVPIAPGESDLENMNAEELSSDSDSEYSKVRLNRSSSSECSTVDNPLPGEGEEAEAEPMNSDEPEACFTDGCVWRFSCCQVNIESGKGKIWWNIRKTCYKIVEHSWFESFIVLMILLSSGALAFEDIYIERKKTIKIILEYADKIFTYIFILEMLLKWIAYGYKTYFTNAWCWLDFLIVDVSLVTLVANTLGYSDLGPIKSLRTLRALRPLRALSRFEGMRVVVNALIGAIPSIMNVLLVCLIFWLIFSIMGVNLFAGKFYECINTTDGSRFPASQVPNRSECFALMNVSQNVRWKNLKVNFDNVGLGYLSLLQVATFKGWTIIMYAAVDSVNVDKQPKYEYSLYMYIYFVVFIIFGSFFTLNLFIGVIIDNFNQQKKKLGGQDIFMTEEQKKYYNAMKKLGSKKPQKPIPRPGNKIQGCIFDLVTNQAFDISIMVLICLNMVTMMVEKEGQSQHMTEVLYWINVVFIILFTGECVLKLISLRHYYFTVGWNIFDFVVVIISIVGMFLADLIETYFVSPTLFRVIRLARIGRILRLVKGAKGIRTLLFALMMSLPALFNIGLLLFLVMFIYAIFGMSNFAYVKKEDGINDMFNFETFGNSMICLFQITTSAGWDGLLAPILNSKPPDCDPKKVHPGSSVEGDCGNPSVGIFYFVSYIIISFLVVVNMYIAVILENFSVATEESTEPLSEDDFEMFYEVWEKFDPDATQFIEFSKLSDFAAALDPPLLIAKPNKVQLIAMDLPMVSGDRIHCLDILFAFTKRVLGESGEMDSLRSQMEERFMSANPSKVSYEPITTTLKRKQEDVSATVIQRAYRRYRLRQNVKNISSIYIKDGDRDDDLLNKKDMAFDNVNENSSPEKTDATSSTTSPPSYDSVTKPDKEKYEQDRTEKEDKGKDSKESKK
Description: Nav1.7 (hSCN9A) electrophysiology assay, PatchXpress platform. The settings on record: estimated IC50 from single point electrophysiology data, HEK cells stably expressing hSCN9A, held at V1/2 of inactivation, read-out: Nav1.7 EIC50. It is filed as cell-based. As for the experimental part:
The ability of the compounds of formula (I) to block the Nav1.7 (or SCN9A) channel were measured using the assay described below.
Human Embryonic Kidney (HEK) cells were transfected with an hSCN9A construct using lipofectamine reagent (Invitrogen), using standard techniques. Cells stably expressing the hSCN9A constructs were identified by their resistance to G-418 (400 μg/ml). Clones were screened for expression using the whole-cell voltage-clamp technique.
HEK cells stably transfected with hSCN9A were maintained in DMEM medium supplemented with 10% heat-inactivated fetal bovine serum and 400 μg/ml G-418 in an incubator at 37° C. with a humidified atmosphere of 10% CO2. For HTS, cells were harvested from flasks by trypsinization and replated in an appropriate multi-well plate (typically 96 or 384 wells/plate) such that confluence would be achieved within 24 hours of plating. For electrophysiological studies, cells were removed from the culture flask by brief trypsinization and re-plated at low density onto glass cover slips. Cells were typically used for electrophysiological experiments within 24 to 72 hours after plating.
Cover slips containing HEK cells expressing hSCN9A were placed in a bath on the stage of an inverted microscope and perfused (approximately 1 ml/minutes) with extracellular solution of the following composition: 138 mM NaCl, 2 mM CaCl2, 5.4 mM KCl, 1 mM MgCl2, 10 mM glucose, and 10 mM HEPES, pH 7.4, with NaOH. […] The osmolarity of the extracellular and intracellular solutions was 300 mOsm/kg and 295 mOsm/kg, respectively. All recordings were made at room temperature (22-24° C.) using AXOPATCH 200B amplifiers and PCLAMP software (Axon Instruments, Burlingame, Calif.).
hSCN9A currents in HEK cells were measured using the whole-cell configuration of the patch-clamp technique (Hamill et al., 1981). Uncompensated series resistance was typically 2 to 5 mega ohms and >85% series resistance compensation was routinely achieved. […] Current records were acquired at 20 to 50 KHz and filtered at 5 to 10 KHz.
HEK cells stably transfected with hSCN9A were viewed under Hoffman contrast optics and placed in front of an array of flow pipes emitting either control or compound-containing extracellular solutions. All compounds were dissolved in dimethyl sulfoxide to make 10 mM stock solutions, which were then diluted into extracellular solution to attain the final concentrations desired. […] The voltage-dependence of inactivation was determined by applying a series of depolarizing prepulses (8 sec long in 10 mV increments) from a negative holding potential. The voltage was then immediately stepped to 0 mV to assess the magnitude of the sodium current. Currents elicited at 0 mV were plotted as a function of prepulse potential to allow estimation of the voltage at which 50% of the channels were inactivated (midpoint of inactivation or V1/2). Compounds were tested for their ability to inhibit hSCN9A sodium channels by activating the channel with a 20 msec voltage step to 0 mV following an 8 second conditioning prepulse to the empirically determined V1/2. Compound effect (% inhibition) was determined by difference in current amplitude before and after application of test compounds. […] Inhibition values <20% and >80% were excluded from the calculation.
Electrophysiological assays were conducted with PatchXpress 7000 hardware and associated software (Molecular Devices Corp). All assay buffers and solutions were identical to those used in conventional whole-cell voltage clamp experiments described above. hSCN9A cells were grown as above to 50%-80% confluency and harvested by trypsinization. Trypsinized cells were washed and resuspended in extracellular buffer at a concentration of 1×10^6 cells/ml. The onboard liquid handling facility of the PatchXpress was used for dispensing cells and application of test compounds.
Turning to `CS(=O)(=O)NC(=O)c1ccc(OCc2ccc(Cl)cc2)c(Cl)c1` [Example 73, 3-chloro-4-[(4-chlorobenzyl)oxy]-N-(methylsulfonyl)benzamide], the IC50 was 6.4 µM.
With `CS(=O)(=O)NC(=O)c1ccc(OCc2cccc(Cl)c2)c(C#N)c1` [Example 74, 4-[(3-chlorobenzyl)oxy]-3-cyano-N-(methylsulfonyl)benzamide], the IC50 was 9.7 µM.
Turning to `CS(=O)(=O)NC(=O)c1ccc(OCc2ccccc2OC(F)(F)F)c(C#N)c1` [Example 76, 3-cyano-N-(methylsulfonyl)-4-{[2-(trifluoromethoxy)benzyl]oxy}benzamide], the IC50 was 10 µM.
As for `CS(=O)(=O)NC(=O)c1ccc(OCc2ccc(Cl)cc2)c(C#N)c1` [Example 77, 4-[(4-chlorobenzyl)oxy]-3-cyano-N-(methylsulfonyl)benzamide], the IC50 was > 3 µM.
Under `CS(=O)(=O)NC(=O)c1cc(Cl)c(OCc2ccccc2Cl)cc1F` [Example 78, 5-chloro-4-[(2-chlorobenzyl)oxy]-2-fluoro-N-(methylsulfonyl)benzamide] stands 0.39 µM; under `CS(=O)(=O)NC(=O)c1ccc(OCc2cccc(C#N)c2)c(Cl)c1` [Example 80, 3-chloro-4-[(3-cyanobenzyl)oxy]-N-(methylsulfonyl)benzamide], > 3 µM; under `COc1cccc(COc2ccc(C(=O)NS(C)(=O)=O)cc2)c1` [Example 82, 4-[(3-methoxybenzyl)oxy]-N-(methylsulfonyl)benzamide], 5.5 µM.
As for `CS(=O)(=O)NC(=O)c1cc(Cl)c(OCc2ccc(-c3ccccc3)cc2)cc1F` [Example 83, 4-(biphenyl-4-ylmethoxy)-5-chloro-2-fluoro-N-(methylsulfonyl)benzamide], the IC50 is 0.62 µM.
Under `CS(=O)(=O)NC(=O)c1cc(Cl)c(OCc2ccc(Cl)cc2)cc1F` [Example 84, 5-chloro-4-[(4-chlorobenzyl)oxy]-2-fluoro-N-(methylsulfonyl)benzamide] stands 6.5 µM; under `CS(=O)(=O)NC(=O)c1ccc(OCc2ccc(-c3ccccc3)cc2)cc1` [Example 85, 4-(biphenyl-4-ylmethoxy)-N-(methylsulfonyl)benzamide], 0.45 µM; under `CS(=O)(=O)NC(=O)c1cc(Cl)c(OCc2cccc(Cl)c2)cc1F` [Example 86, 5-chloro-4-[(3-chlorobenzyl)oxy]-2-fluoro-N-(methylsulfonyl)benzamide], 0.58 µM.
In the case of `CS(=O)(=O)NC(=O)c1cc(Cl)c(OCc2ccccc2-c2ccccc2)cc1F` [Example 87, 4-(biphenyl-2-ylmethoxy)-5-chloro-2-fluoro-N-(methylsulfonyl)benzamide], the IC50 is 0.64 µM.
Take `CS(=O)(=O)NC(=O)c1ccc(OCc2ccc(Cl)cc2)cc1` [Example 88, 4-[(4-chlorobenzyl)oxy]-N-(methylsulfonyl)benzamide]: the IC50 is 6.1 µM.
Consider `COc1ccc(COc2ccc(C(=O)NS(C)(=O)=O)cc2)cc1` [Example 89, 4-[(4-methoxybenzyl)oxy]-N-(methylsulfonyl)benzamide], for which the IC50 is > 3 µM.
For the compound `CS(=O)(=O)NC(=O)c1ccc(OCc2ccc(-n3cccn3)cc2)c(Cl)c1` [Example 90, 3-chloro-N-(methylsulfonyl)-4-{[4-(1H-pyrazol-1-yl)benzyl]oxy}benzamide], the IC50 is > 3 µM.
Take `CS(=O)(=O)NC(=O)c1ccc(OCc2cccc(Cl)c2)cc1` [Example 91, 4-[(3-chlorobenzyl)oxy]-N-(methylsulfonyl)benzamide]: the IC50 is 3.5 µM.
In the case of `CS(=O)(=O)NC(=O)c1ccc(OCc2cccc(OC(F)(F)F)c2)cc1` [Example 92, N-(methylsulfonyl)-4-{[3-(trifluoromethoxy)benzyl]oxy}benzamide], the IC50 is 0.59 µM.
Turning to `CS(=O)(=O)NC(=O)c1ccc(OCc2ccccc2-c2ccccc2)c(C#N)c1` [Example 93, 4-(biphenyl-2-ylmethoxy)-3-cyano-N-(methylsulfonyl)benzamide], the IC50 was > 3 µM.
With `CS(=O)(=O)NC(=O)c1ccc(OCc2ccccc2-c2ccccc2)cc1` [Example 94, 4-(biphenyl-2-ylmethoxy)-N-(methylsulfonyl)benzamide], the IC50 is 4.3 µM.
Turning to `COc1ccc(OCc2cc(F)c(C(=O)NS(C)(=O)=O)cc2F)cc1F` [Example 97, 2,5-difluoro-4-[(3-fluoro-4-methoxyphenoxy)methyl]-N-(methylsulfonyl)benzamide], the IC50 is 1.5 µM.
As to `COc1cc(Cl)cc(OCc2cc(F)c(C(=O)NS(C)(=O)=O)cc2F)c1` [Example 98, 4-[(3-chloro-5-methoxyphenoxy)methyl]-2,5-difluoro-N-(methylsulfonyl)benzamide], the IC50 is 0.14 µM.
With `CS(=O)(=O)NC(=O)c1cc(F)c(COc2ccc3cc(C#N)ccc3c2)cc1F` [Example 99, 4-{[(6-cyano-2-naphthyl)oxy]methyl}-2,5-difluoro-N-(methylsulfonyl)benzamide], the IC50 is 0.82 µM.
For `Cc1ccc(Cl)cc1OCc1cc(F)c(C(=O)NS(C)(=O)=O)cc1F` [Example 100, 4-[(5-chloro-2-methylphenoxy)methyl]-2,5-difluoro-N-(methylsulfonyl)benzamide] the value was 0.39 µM.
Consider `CS(=O)(=O)NC(=O)c1cc(F)c(COc2ccc(C#N)c(C(F)(F)F)c2)cc1F` [Example 101, 4-{[4-cyano-3-(trifluoromethyl)phenoxy]methyl}-2,5-difluoro-N-(methylsulfonyl)benzamide], for which the IC50 was 1.9 µM.
Under `Cc1c(OCc2cc(F)c(C(=O)NS(C)(=O)=O)cc2F)cccc1-n1cccn1` [Example 102, 2,5-difluoro-4-{[2-methyl-3-(1H-pyrazol-1-yl)phenoxy]methyl}-N-(methylsulfonyl)benzamide] stands > 3 µM; under `CS(=O)(=O)NC(=O)c1cc(F)c(COc2ccc(C#N)c(C#N)c2)cc1F` [Example 103, 4-[(3,4-dicyanophenoxy)methyl]-2,5-difluoro-N-(methylsulfonyl)benzamide], 6.1 µM.
For `CS(=O)(=O)NC(=O)c1cc(F)c(COc2ccc(C#N)cc2F)cc1F` [Example 104, 4-[(4-cyano-2-fluorophenoxy)methyl]-2,5-difluoro-N-(methylsulfonyl)benzamide], the IC50 was 5.1 µM.
For `Cc1cc(Cl)cc(OCc2cc(F)c(C(=O)NS(C)(=O)=O)cc2F)c1` [Example 105, 4-[(3-chloro-5-methylphenoxy)methyl]-2,5-difluoro-N-(methylsulfonyl)benzamide], the IC50 was 0.1 µM.
Regarding `CN1CCC(c2cccc(OCc3cc(F)c(C(=O)NS(C)(=O)=O)cc3F)c2)CC1` [Example 106, 2,5-difluoro-4-{[3-(1-methylpiperidin-4-yl)phenoxy]methyl}-N-(methylsulfonyl)benzamide], the IC50 was 9.2 µM.
Under `CC(C)c1cccc(OCc2cc(F)c(C(=O)NS(C)(=O)=O)cc2F)c1` [Example 107, 2,5-difluoro-4-[(3-isopropylphenoxy)methyl]-N-(methylsulfonyl)benzamide] stands 0.33 µM; under `CS(=O)(=O)NC(=O)c1cc(F)c(COc2cc(F)cc(C(F)(F)F)c2)cc1F` [Example 108, 2,5-difluoro-4-{[3-fluoro-5-(trifluoromethyl)phenoxy]methyl}-N-(methylsulfonyl)benzamide], 0.087 µM.
